Test results: article PMC11501026, “L-Arginine and asymmetric dimethylarginine (ADMA) transport across the mouse blood-brain and blood-CSF barriers: Evidence of saturable transport at both interfaces and CNS to blood efflux” (PLOS ONE, 2024)
Values joined by “and” are separate entries in the source; they are usually repeats but may differ in a detail not shown here. Equal values may be shown once. Where a name gives a salt, the structure may show the parent alone. Read-outs that look alike come from different tables or passages of the source.

Key:
[1] = system: [3H]-ADMA transport across the blood-brain and blood-CSF barriers; assay: self-inhibition, in situ perfusion: [^3H]-ADMA with 100 μM unlabelled ADMA; assay type: in vivo, mouse; conditions: male, Balb/c, mouse, other: in situ brain perfusion, with unlabelled ADMA 100 µM, 10 mins, Balb/c ♂, 5ml/min
Experimental: Self-inhibition experiments were also performed. […] Cross-competition experiments were also performed.
The percentage change in the RTissue uptake values achieved in the absence or presence of an unlabelled inhibitor can be calculated by means of Eq 4.
%change=RTissue−RInhibition/RTissue×100 Eq 4
We define RInhibition as the RTissue uptake in the presence of an inhibitor in the artificial plasma.
A decrease in the uptake of radiolabelled solute in the presence of unlabelled inhibitor is indicative of a saturable influx transport system. Conversely, an increase in the uptake of radiolabelled solute in the presence of unlabelled inhibitor is indicative of a saturable efflux transport system.

[2] = in situ brain/choroid plexus perfusion: CNS uptake of [^3H]-arginine, [^3H]-ADMA and [^14C]-sucrose (multiple-time and single-time uptake analysis); conditions: 5ml/min; for [3H] ADMA and [14C] Sucrose uptake, frontal cortex: in mL/100 g; for Kp at […] / Kp at 20 min, 62.5 nM / Kp at 30 min, 62.5 nM / Kp at 10 min, 62.5 nM / Kp at […], 62.5 nM: male, BALB/c, mouse
[3] = 2.5 mins, Balb/c ♂, individual mouse
[4] = 30 mins, Balb/c ♂, individual mice
[5] = CONTROL, 10 mins, Balb/c ♂, mean
[6] = [3H] ADMA + [14C] Sucrose, 30 mins, Balb/c ♂, individual mice
[7] = [3H] ADMA + [14C] Sucrose, 30 mins, Balb/c ♂, mean

For `CN(C)C(N)=NCCC[C@H](N)C(=O)O` [ADMA, N^G,N^G-dimethylarginine dihydrochloride], the Kp at 10 min, 62.5 nM ([1]; CSF, Difference (ADMA minus Sucrose), CSF, + 100uM un-labelled ADMA, mean) was 2.01, the Kp at 10 min, 62.5 nM ([1]; CSF, [3H] ADMA + [14C] Sucrose + 100uM un-labelled ADMA, mean, read-out: uptake into CSF) was 2.15 and the Kp at 10 min, 62.5 nM ([1]; cerebellum, Difference (ADMA minus Sucrose), cerebellum, + 100uM un-labelled ADMA, individual mice) was 0.0515. For the same compound, the Kp at 10 min, 62.5 nM ([1]; cerebellum, Difference (ADMA minus Sucrose), cerebellum, + 100uM un-labelled ADMA, mean) was 0.0701, the Kp at 10 min, 62.5 nM ([1]; cerebellum, [3H] ADMA + [14C] Sucrose + 100uM un-labelled ADMA, individual mice, read-out: uptake into cerebellum) was 0.09 and the Kp at 10 min, 62.5 nM ([1]; cerebellum, [3H] ADMA + [14C] Sucrose + 100uM un-labelled ADMA, mean, read-out: uptake into cerebellum) was 0.121. It also gave a Kp at 10 min, 62.5 nM ([1]; homogenate, Difference (ADMA minus Sucrose), homogenate, + 100uM un-labelled ADMA, mean) of 0.0396, a Kp at 10 min, 62.5 nM ([1]; homogenate, [3H] ADMA + [14C] Sucrose + 100uM un-labelled ADMA, individual mice, read-out: uptake, homogenate) of 0.0686 and a Kp at 10 min, 62.5 nM ([1]; homogenate, [3H] ADMA + [14C] Sucrose + 100uM un-labelled ADMA, mean, read-out: uptake, homogenate) of 0.0884. The Kp at 10 min, 62.5 nM ([1]; hypothalamus, Difference (ADMA minus Sucrose), hypothalamus, + 100uM un-labelled ADMA, mean) was 0.0972, the Kp at 10 min, 62.5 nM ([1]; hypothalamus, [3H] ADMA + [14C] Sucrose + 100uM un-labelled ADMA, mean, read-out: uptake into hypothalamus) was 0.146 and the Kp at 10 min, 62.5 nM ([1]; pellet, Difference (ADMA minus Sucrose), pellet, + 100uM un-labelled ADMA, individual mice) was 0.01. For the same compound, the Kp at 10 min, 62.5 nM ([1]; pellet, [3H] ADMA + [14C] Sucrose + 100uM un-labelled ADMA, individual mice, read-out: uptake, pellet) was 0.0144, the Kp at 10 min, 62.5 nM ([1]; pellet, [3H] ADMA + [14C] Sucrose + 100uM un-labelled ADMA, mean, read-out: uptake, pellet) was 0.0179 and the Kp at 10 min, 62.5 nM ([1]; pituitary gland, Difference (ADMA minus Sucrose), pituitary gland, + 100uM un-labelled ADMA, mean) was 0.586. For the same compound, the Kp at 10 min, 62.5 nM ([1]; pituitary gland, [3H] ADMA + [14C] Sucrose + 100uM un-labelled ADMA, mean, read-out: uptake into pituitary gland) was 0.681, the Kp at 10 min, 62.5 nM ([1]; pons, Difference (ADMA minus Sucrose), pons, + 100uM un-labelled ADMA, mean) was 0.0724 and the Kp at 10 min, 62.5 nM ([1]; pons, [3H] ADMA + [14C] Sucrose + 100uM un-labelled ADMA, individual mice, read-out: uptake into pons) was 0.102. It also gave a Kp at 10 min, 62.5 nM ([1]; pons, [3H] ADMA + [14C] Sucrose + 100uM un-labelled ADMA, mean, read-out: uptake into pons) of 0.127, a Kp at 10 min, 62.5 nM ([1]; supernatant, Difference (ADMA minus Sucrose), supernatant, + 100uM un-labelled ADMA, mean) of 0.0316 and a Kp at 10 min, 62.5 nM ([1]; supernatant, [3H] ADMA + [14C] Sucrose + 100uM un-labelled ADMA, individual mice, read-out: uptake, supernatant) of 0.047. For the same compound, the Kp at 10 min, 62.5 nM ([1]; supernatant, [3H] ADMA + [14C] Sucrose + 100uM un-labelled ADMA, mean, read-out: uptake, supernatant) was 0.0703, the Kp at 10 min, 62.5 nM ([1]; thalamus, Difference (ADMA minus Sucrose), thalamus, + 100uM un-labelled ADMA, mean) was 0.0727 and the Kp at 10 min, 62.5 nM ([1]; thalamus, [3H] ADMA + [14C] Sucrose + 100uM un-labelled ADMA, individual mice, read-out: uptake into thalamus) was 0.077. The Kp at 10 min, 62.5 nM ([1]; thalamus, [3H] ADMA + [14C] Sucrose + 100uM un-labelled ADMA, mean, read-out: uptake into thalamus) was 0.117, the “Difference (ADMA minus Sucrose), choroid plexus” value [2, 3] was 0.4619 (2×) and 1.038 and 0.6787 and 0.7164 and the “Difference (ADMA minus Sucrose), pineal gland” value [2, 3] was 0.0119 (2×) and 0.6055 and 0.1704 and 0.3775. The “[3H] ADMA and [14C] Sucrose uptake, choroid plexus” value [2, 3] was 1.245 and 0.8202 and 0.645 and 0.9198, the “[3H] ADMA and [14C] Sucrose uptake, frontal cortex” value [2, 3] was 0.1518 and 0.0919 and the “Difference (ADMA minus Sucrose), caudate nucleus” value [2, 4] was 0.07868 and 0.2155 and 0.07884 and 0.04051 and 0.09553. The “Difference (ADMA minus Sucrose), choroid plexus” value [2, 4] was 0.4322 and 0.7701 and 0.2962 and 0.1895 and 0.3495, the “Difference (ADMA minus Sucrose), frontal cortex” value [2, 4] was 0.08507 and 0.2094 and 0.08399 and 0.04504 and 0.09711 and the “Difference (ADMA minus Sucrose), occipital cortex” value [2, 4] was 0.09101 and 0.202 and 0.09058 and 0.04293 and 0.1128. The “Difference (ADMA minus Sucrose), pineal gland” value [2, 4] was 0.4361 and 1.061 and 0.1804 and 0.1286 and 0.2721, the “Difference (ADMA minus Sucrose), caudate nucleus” value ([2]; 30 mins, Balb/c ♂, mean) was 0.1018 and the “Difference (ADMA minus Sucrose), choroid plexus” value ([2]; 30 mins, Balb/c ♂, mean) was 0.4075. For the same compound, the “Difference (ADMA minus Sucrose), frontal cortex” value ([2]; 30 mins, Balb/c ♂, mean) was 0.1041, the “Difference (ADMA minus Sucrose), caudate nucleus” value [2, 5] was 0.2407 and the “Difference (ADMA minus Sucrose), cerebellum” value [2, 5] was 0.1615. For the same compound, the “Difference (ADMA minus Sucrose), choroid plexus” value [2, 5] was 2.6086, the “Difference (ADMA minus Sucrose), frontal cortex” value [2, 5] was 0.2494 and the “Difference (ADMA minus Sucrose), hippocampus” value [2, 5] was 0.2174. The “Difference (ADMA minus Sucrose), hypothalamus” value [2, 5] was 0.3042, the “Difference (ADMA minus Sucrose), occipital cortex” value [2, 5] was 0.2252 and the “Difference (ADMA minus Sucrose), pituitary gland” value [2, 5] was 1.829. The “Difference (ADMA minus Sucrose), pons” value [2, 5] was 0.2464, the “Difference (ADMA minus Sucrose), thalamus” value [2, 5] was 0.21 and the “[3H] ADMA and [14C] Sucrose uptake, caudate nucleus” value [2, 5] was 0.2609. For the same compound, the “[3H] ADMA and [14C] Sucrose uptake, cerebellum” value [2, 5] was 0.1856, the “[3H] ADMA and [14C] Sucrose uptake, choroid plexus” value [2, 5] was 2.881 and the “[3H] ADMA and [14C] Sucrose uptake, hippocampus” value [2, 5] was 0.2336. The “[3H] ADMA and [14C] Sucrose uptake, hypothalamus” value [2, 5] was 0.341, the “[3H] ADMA and [14C] Sucrose uptake, occipital cortex” value [2, 5] was 0.2471 and the “[3H] ADMA and [14C] Sucrose uptake, pituitary gland” value [2, 5] was 1.982. For the same compound, the “[3H] ADMA and [14C] Sucrose uptake, pons” value [2, 5] was 0.2825, the “[3H] ADMA and [14C] Sucrose uptake, thalamus” value [2, 5] was 0.2291 and the “[3H] ADMA and [14C] Sucrose uptake, frontal cortex” value [2, 5] was 0.273. The “uptake into caudate nucleus” value [2, 6] was 0.09268 and 0.2487 and 0.1281 and 0.07499 and 0.1274, the “uptake into choroid plexus” value [2, 6] was 0.5413 and 0.9894 and 0.4672 and 0.3444 and 0.47 and the “uptake into frontal cortex” value [2, 6] was 0.1003 and 0.2556 and 0.1339 and 0.07655 and 0.1326. For the same compound, the “uptake into occipital cortex” value [2, 6] was 0.1057 and 0.2389 and 0.1237 and 0.07486 and 0.1517, the “uptake into caudate nucleus” value [2, 7] was 0.1344 and the “uptake into choroid plexus” value [2, 7] was 0.5624. The “uptake into frontal cortex” value [2, 7] was 0.1398, the “uptake into occipital cortex” value [2, 7] was 0.139 and the Kp at […] ([2]; CSF, Difference (ADMA minus Sucrose), 2.5 mins, mean) was 0.034. The Kp at 20 min, 62.5 nM ([2]; CSF, Difference (ADMA minus Sucrose), individual mouse) was 0.197, the Kp at 20 min, 62.5 nM ([2]; CSF, Difference (ADMA minus Sucrose), mean) was 0.225 and the Kp at 30 min, 62.5 nM ([2]; CSF, Difference (ADMA minus Sucrose), 30 mins, mean) was 0.349. For the same compound, the Kp at 10 min, 62.5 nM ([2]; CSF, Difference (ADMA minus Sucrose), CONTROL, 10 mins, mean) was 0.267, the Kp at […] ([2]; CSF, [3H] ADMA and [14C] Sucrose uptake, 2.5 mins, mean) was 0.122 and the Kp at 20 min, 62.5 nM ([2]; CSF, [3H] ADMA and [14C] Sucrose uptake, mean) was 0.433. For the same compound, the Kp at 10 min, 62.5 nM ([2]; CSF, [3H] ADMA and [14C] Sucrose uptake, CONTROL, 10 mins, mean) was 0.273, the Kp at 30 min, 62.5 nM ([2]; CSF, uptake into CSF, [3H] ADMA + [14C] Sucrose, 30 mins, Balb/c ♂, mean) was 0.721 and the Kp at […], 62.5 nM ([2]; caudate nucleus, Difference (ADMA minus Sucrose), 2.5 mins, mean) was 0.0936. It also gave a Kp at 20 min, 62.5 nM ([2]; caudate nucleus, Difference (ADMA minus Sucrose), mean) of 0.256, a Kp at […], 62.5 nM ([2]; caudate nucleus, [3H] ADMA and [14C] Sucrose uptake, 2.5 mins, mean) of 0.107 and a Kp at 20 min, 62.5 nM ([2]; caudate nucleus, [3H] ADMA and [14C] Sucrose uptake, mean) of 0.28. The Kp at […] ([2]; cerebellum, Difference (ADMA minus Sucrose), 2.5 mins, mean) was 0.0947, the Kp at 20 min, 62.5 nM ([2]; cerebellum, Difference (ADMA minus Sucrose), mean) was 0.273 and the Kp at […] ([2]; cerebellum, [3H] ADMA and [14C] Sucrose uptake, 2.5 mins, mean) was 0.112. The Kp at 20 min, 62.5 nM ([2]; cerebellum, [3H] ADMA and [14C] Sucrose uptake, mean) was 0.3, the Kp at […], 62.5 nM ([2]; choroid plexus, Difference (ADMA minus Sucrose), 2.5 mins, mean) was 0.671 and the Kp at 20 min, 62.5 nM ([2]; choroid plexus, Difference (ADMA minus Sucrose), mean) was 1.92. For the same compound, the Kp at […], 62.5 nM ([2]; choroid plexus, [3H] ADMA and [14C] Sucrose uptake, 2.5 mins, individual mouse) was 0.645, the Kp at […], 62.5 nM ([2]; choroid plexus, [3H] ADMA and [14C] Sucrose uptake, 2.5 mins, mean) was 0.855 and the Kp at 20 min, 62.5 nM ([2]; choroid plexus, [3H] ADMA and [14C] Sucrose uptake, mean) was 2.24. It also gave a Kp at […], 62.5 nM ([2]; frontal cortex, Difference (ADMA minus Sucrose), 2.5 mins, individual mouse) of 0.0723, a Kp at […], 62.5 nM ([2]; frontal cortex, Difference (ADMA minus Sucrose), 2.5 mins, mean) of 0.0986 and a Kp at 20 min, 62.5 nM ([2]; frontal cortex, Difference (ADMA minus Sucrose), mean) of 0.276.
